According to patent US20180362487A1, “STEREOISOMER OF BROMADIOLONE, COMPOSITION AND RODENTICIDAL BAIT COMPRISING SAME, AND PROCESS FOR CONTROLLING TARGET RODENT PESTS” (priority 2015, published 2018):

Assay type: in vivo, "Sprague-Dawley" SD rats
Details: per os tube feeding, about 13 mg bromadiolone per kg (56% D1,2 / 44% D3,4), liver on D1, D3, D7, male and female rats, FIG. 2
Description: Separation of the configurational stereoisomers of bromadiolone is performed by high-pressure liquid chromatography (HPLC) on a LUX® Cellulose-1 chiral column (Phenomenex, Le Pecq, France) containing a chiral stationary phase constituted of particles of cellulose tris(3,5-dimethylphenyl carbamate), said particles having a mean size of 3 μm and having a mean pore size of 1000 Å. A mixture formed from acetonitrile (A) and water comprising 0.1% by volume of formic acid (B), with an A/B volume ratio of 80/20 and with a flow rate of 0.25 mL/minute in the chromatography column, is used as mobile phase. The concentration of the composition to be analysed is 1 μg of bromadiolone per millilitre of acetonitrile and the volume injected onto the column is 1 μL. Detection is performed by tandem mass spectrometry (MS/MS) in negative electrospray ionization (ESI) mode. The temperature of the nebulizer gas is 350° C. and its flow rate is 8 L/minute. The pressure of the nebulizer gas is brought to 2700 hPa. In particular, the MRM (“Multiple Reaction Monitoring”) transitions m/z 525.1→250.1 and m/z 525.1→181, corresponding to bromadiolone, are detected.
About 0.525 g (±0.025 g) of rat liver is weighed out accurately and placed in a 50 mL polypropylene tube. 10 mL of acetone are added and the suspension is homogenized using an Ultra-Turrax® homogenizer/disperser for a time of about 30 seconds. […]

SMILES	persistence in the liver of the rats (hepatic concentration of the diastereoisomers)
O=c1oc2ccccc2c(O)c1C(CC(O)c1ccc(-c2ccc(Br)cc2)cc1)c1ccccc1 (single isomer, unassigned) [diastereoisomer D1,2]	longer persistence in the liver of the rats than the persistence of said diastereoisomer D3,4
O=c1oc2ccccc2c(O)c1C(CC(O)c1ccc(-c2ccc(Br)cc2)cc1)c1ccccc1 (single isomer, unassigned) [diastereoisomer D3,4]	less persistent in the liver of target rodents
